One data set has as its target T1, rat LHRH receptor (Rattus norvegicus, UniProt P30969).
T1 construct: expressed in transfected cells; host or cells: LTK cells (mouse fibroblasts, ATCC CCL-1.3)
T1 sequence (P30969 1-327): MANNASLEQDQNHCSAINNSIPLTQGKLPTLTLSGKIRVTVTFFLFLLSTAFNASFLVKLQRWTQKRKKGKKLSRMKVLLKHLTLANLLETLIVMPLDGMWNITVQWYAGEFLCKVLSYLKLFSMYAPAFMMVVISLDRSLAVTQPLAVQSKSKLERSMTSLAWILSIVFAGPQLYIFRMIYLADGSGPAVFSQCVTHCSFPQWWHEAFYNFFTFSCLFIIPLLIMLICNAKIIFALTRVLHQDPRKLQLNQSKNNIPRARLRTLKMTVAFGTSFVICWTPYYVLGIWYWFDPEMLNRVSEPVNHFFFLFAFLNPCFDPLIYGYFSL
The experiment in a line: LHRH receptor-ligand binding assay (transfected LTK cells). The conditions noted are these: LTK cells transfected with rat LHRH receptor, 125I-triptorelin tracer, 37° C., 60 min; read-out: Binding to r-LHRHR EC50. The procedure: ^125I-Triptorelin [^125I-(D)-Trp6-GnRH] was purchased from Biotrend (Cologne, Germany).
The specific activity was in each case 2.13 Ci/mmol.
LTK cells (mouse fibroblasts: ATCC No. CCL-1.3) which have been transfected with the rat LHRH receptor are cultivated in DMEM medium (Invitrogen Life Technologies, Germany) with penicillin (100 I.U./ml), streptomycin (0.1 mg/ml) and glutamine (0.01 mol/l) and 10% fetal calf serum (FCS; Invitrogen Life Technologies, Germany) on plastic tissue culture plates (Nunc, Germany, 245×245-20 mm).
80% confluent cell culture plates are washed twice with 50 ml of phosphate-buffered saline (PBS) and then detached with 0.01 M EDTA solution. The cells are pelleted by centrifugation at 200·g for 5 min in a laboratory centrifuge (Kendro, Germany). The cell pellet is resuspended in 3 ml of binding medium (DMEM; 10 mM Hepes; 0.5% BSA; 0.1% […]; 1 g/l bacitracin (add fresh, stock 100×); 0.1 g/l SBTI (add fresh, stock 1000×) and the cell count is determined by Trypan blue staining in a Neubauer counting chamber. The cell suspension is adjusted with binding medium to a concentration of 5×10^5 cells/0.05 ml.
Binding studies for competition plots are carried out as duplicates. The test substances are employed as 10 mM DMSO solutions. They are diluted to 4 times the final concentration employed with binding medium. 25 μl of the substance dilution are mixed with 25 μl of tracer solution (^125I-triptorelin or ^125I-cetrorelix). The tracer concentration is adjusted to approx. 50 000 cpm (measured in a Cobra II, γ counter. PE Liefe Science, Germany) in the final reaction volume of 100 μl.
200 μl of silicone/liquid paraffin mixture (84%:16%) are introduced into 650 μl conical tubes (Roth. Germany). 50 μl of the cell suspension are pipetted thereon, followed by 50 μl of the test substance/tracer mixture. The tubes are capped and incubated with vertical rotation in an incubator at 37° C. for 60 min. After incubation, the samples are centrifuged in a centrifuge (Kendro, Germany) at 900 rpm and subsequently shock-frozen in liquid N2. The tip with the cell pellet is cut off and transferred into prepared counting vials (Roth, Germany). The remainder of the conical tube with the remaining supernatant is likewise transferred into a counting vial. The measurement takes place in a γ counter for 1 min/sample.
Evaluation of the samples takes place after calculation of the specific binding compared with untreated cells, after subtraction of the nonspecific binding (excess of unlabeled ligand, 1 μM) by means of GraphPad Prism or alternatively by means of OMMM software.

The test system of data set [1] is LHRH-stimulated LH secretion from rat pituitary cells. The experiment in a line: Inhibition of LHRH-induced LH secretion from rat pituitary cells in vitro. The data set is classed as cell-based. The method, then: The LH concentration in cell culture supernatants was measured using the rat luteinizing hormone (rLH) enzyme immunoassay (EIA) system ELISA (RPN 2562) from Amersham Pharmacia Biotech. All other chemicals used were from commercial sources in the highest purity available.
Juvenile male Wistar rats (Harlan Winkelmann, Germany) were sacrificed by decapitation, and the pituitaries were removed and taken up in Hanks' buffer (HBSS) with 0.3% BSA and 10 mM HEPES (pH 7.4). Pituitaries from 20 rats were required to carry out one experiment. The cells of the anterior lobe of the pituitary were separated from the remaining tissue by incubation in Hanks' buffer with 10 mM HEPES (pH 7.4), 0.3% BSA, 1 mg/ml hyaluronidase (type VIII), 1 mg/ml soybean trypsin inhibitor, 10 μg/ml DNAsel and 1 mg/ml papain at 37° C. for 30 minutes A sterile Pasteur pipette was used to disperse the cells, and they were subsequently pelleted by centrifugation. The cells were seeded in a density of 2.5×10^5 cells/well of a collagen-coated 48-well plate (Becton Dickinson) in DMEM medium (Invitrogen Life Technologies, Germany) with 10% fetal calf serum (FCS; Invitrogen Life Technologies, Germany), 10 mill nonessential amino acids and 10 mill Pen/Strep (penicillin/streptomycin).
The medium was changed after incubation at 37° C., 5% CO2 and 95% humidity for 48 h. The medium was replaced by LHRH-containing (10 nM) medium or medium with LHRH (10 nM) and test substance in the concentration indicated (table). After a further incubation for 3 hours, the cell supernatant was harvested and frozen at −20° C. The LH content was determined by means of ELISA in triplicate determination in accordance with the manufacturer's (Amersham Pharmacia Biotech) instructions.
In the following table, “% Inhibition” describes the quotient of LHRH-stimulated LH secretion with (“LH (ng/ml)” and without the addition of the test substance. The values originate from different, independent experiments.

Data set [2] can be described thus: Saturation solubility in water. The data set is classed as physicochemical. The conditions noted are these: maximum of 1% DMSO added, HPLC UV; for solubility: water, thermodynamic from solid. The method, then: The saturation solubility in water was determined in accordance with the following description: to initiate dissolving of the substances and to improve the wetting of the samples, a maximum of 1% DMSO was added. The content was checked by using an HPLC UV method.

A further data set has as its target T2, LHRH receptor (Rattus norvegicus, UniProt P30969).
T2 construct: rat pituitary cells which naturally strongly express the LHRH receptor; from tissue; host or cells: rat pituitary cells (membrane preparation)
T2 sequence (P30969 1-327): T1 sequence (P30969 1-327)
The experiment in a line: LHRH receptor-ligand binding assay (membrane preparations from rat pituitary cells). To be noted: competition with 0.05 nM [125I][D-Trp6]-LHRH, 90 min, 4° C., rat pituitary membranes. The procedure: Heterologous competition experiments were carried out using membrane preparations from rat pituitary cells which naturally strongly express the LHRH receptor. The ligand used in this case was [^125I][D-Trp^6]-LHRH in a concentration of 0.05 nM. Unlabeled [D-Trp^6]-LHRH was used in a concentration of 1 μM, or the test substance was used in the desired concentration, for competition. After an incubation time of 90 minutes at 4° C., the bound ligand was measured by scintillation (Halmos et al., Proc. Natl. Acad. Sci. USA, 1996, 93, 2398).
The result obtained was the percentage proportion of bound ligand in the presence of the competitor related to the specifically bound proportion of the control (see result for selected compounds in Table 3). EC50 values were calculated by nonlinear regression analysis of the competition plots.

Data set [3] can be described thus: Metabolic stability in human liver microsomes. Type of data set: in vitro ADME. The conditions noted are these: 1 μM, 37° C., NADPH. The procedure:
The metabolic stability in relation to liver microsomes (species human, rat) was determined in accordance with the following description: the substances were incubated at a test concentration of 1 […] An HPLC MS/MS method was subsequently used to quantify the unmetabolized amount of starting compound relative to 100%.

[4] abbreviates: test substance 3.3 × 10^−8 M, LHRH 10 nM, 3 hours.

Converted amounts (≈) assume the structure as drawn. Where two headings read alike, the source gives them in different places.

With `CCC(C)[C@H](NC(=O)[C@@]1(NC(=O)[C@@H](NC(=O)Cc2ccccc2F)C(C)CC)CCc2[nH]c3c(Cl)cc(Cl)cc3c2C1)C(N)=O` (stereo partly drawn) [Compound 4, (R)-6,8-dichloro-3-{(S)-2-[2-(2-fluorophenyl)acetylamino]-3-methylpentanoylamino}-2,3,4,9-tetrahydro-1H-carbazole-3-carboxylic acid ((S)-1-carbamoyl-2-methylbutyl)amide], at rat LHRH receptor, the EC50 turned out to be 4.8 nM. 0.033 µM produced 67% inhibition in data set [1] (Rattus norvegicus, 3 h). The “LH (ng/ml) ± SD” value in data set [1] (setting [4]) came out at 79.3 ± 5.7 ng/mL.

`CC[C@H](C)[C@H](NC(=O)[C@@]1(NC(=O)[C@H](Cc2ccc(OP(=O)(O)O)cc2)NC(=O)OCc2ccccc2)CCc2[nH]c3c(Cl)cc(Cl)cc3c2C1)C(N)=O` [Compound 9]: in data set [2], the solubility amounted to 151 µg/mL (≈ 191 µM).

As for `CCC(C)[C@H](NC(=O)[C@@]1(NC(=O)[C@H](CCc2ccc(O)cc2)NC(=O)OCc2ccccc2)CCc2[nH]c3c(Cl)cc(Cl)cc3c2C1)C(N)=S` (stereo partly drawn) [Compound 10, benzyl[(S)-1-[(R)-6,8-dichloro-3-((S)-2-methyl-1-thiocarbamoylbutylcarbamoyl)-2,3,4,9-tetrahydro-1H-carbazol-3-ylcarbamoyl]-3-(4-hydroxyphenyl)propyl]carbamate], the 50% effective concentration (EC50) at rat LHRH receptor is 7.5 nM. The inhibition at 0.033 µM in data set [1] (Rattus norvegicus, test substance 3.3 × 10^−8 M, LHRH 10 nM, 3 hours, read-out: % Inhibition) was 39%. The compound further displayed an inhibition at 0.0033 µM in data set [1] (Rattus norvegicus, test substance 3.3 × 10^−9 M, LHRH 10 nM, 3 hours) of 0%. Further, the “LH (ng/ml) ± SD” value was 118.7 ± 11.6 ng/mL in data set [1] (setting [4]) and 198.8 ± 4.2 ng/mL in data set [1] (test substance 3.3 × 10^−9 M, LHRH 10 nM, 3 hours).

Regarding `CCC(C)[C@H](NC(=O)[C@@]1(NC(=O)[C@@H](NC(=O)OCc2ccc(F)cc2)C(C)CC)CCc2[nH]c3c(Cl)cc(Cl)cc3c2C1)C(N)=O` (stereo partly drawn) [Compound 48, 4-fluorobenzyl {(S)-1-[(R)-3-((S)-1-carbamoyl-2-methylbutylcarbamoyl)-6,8-dichloro-2,3,4,9-tetrahydro-1H-carbazol-3-ylcarbamoyl]-2-methylbutyl}carbamate], on LHRH receptor, the concentration for a half-maximal effect (EC50) stood at 8 nM.

In turn, `CCC(C)[C@H](NC(=O)Cc1ccc(F)cc1F)C(=O)N[C@]1(C(=O)N[C@H](C(N)=S)C(C)CC)CCc2[nH]c3c(Cl)cc(F)cc3c2C1` (stereo partly drawn) [Compound 66, (R)-8-chloro-3-{(S)-2-[2-(2,4-difluorophenyl)acetylamino]-3-methylpentanoylamino}-6-fluoro-2,3,4,9-tetrahydro-1H-carbazole-3-carboxylic acid ((S)-2-methyl-1-thiocarbamoylbutyl)amide] yielded a concentration giving a half-maximal response (EC50) on LHRH receptor of 0.72 nM.

Turning to `CCC(C)[C@H](NCCc1ccc(F)cc1)C(=O)N[C@]1(C(=O)N[C@H](C(N)=S)C(C)CC)CCc2[nH]c3c(Cl)cc(F)cc3c2C1` (stereo partly drawn) [Compound 67, (R)-8-chloro-6-fluoro-3-{(S)-2-[2-(4-fluorophenyl)ethylamino]-3-methylpentanoylamino}-2,3,4,9-tetrahydro-1H-carbazole-3-carboxylic acid ((S)-2-methyl-1-thiocarbamoylbutyl)amide], the midpoint of the response on LHRH receptor, the EC50, lay at 6.9 nM.

`CCC(C)[C@H](NC(=O)[C@@]1(NC(=O)[C@@H](NC(=O)Cc2ccccc2F)C(C)CC)CCc2[nH]c3c(C(F)(F)F)cccc3c2C1)C(N)=O` (stereo partly drawn) [Compound 75, (R)-3-{(S)-2-[2-(2-fluorophenyl)acetylamino]-3-methylpentanoylamino}-8-trifluoromethyl-2,3,4,9-tetrahydro-1H-carbazole-3-carboxylic acid ((S)-1-carbamoyl-2-methylbutyl)amide] came in with an EC50 at LHRH receptor of 0.59 nM.

Regarding `CCC(C)C(NC(=O)OCc1ccccc1)C(=O)NC1(C(=O)NC(C(N)=O)C2CCCCC2)CCc2[nH]c3c(Cl)cc(Cl)cc3c2C1` (stereo not drawn) [Example 300 from WO 03/051837 A2, reference compound], the “Saturation solubility in water” value in data set [2] came to 0.38 µg/mL.

For `CCC(C)C(NC(=O)C1(NC(=O)C(CCc2ccc(O)cc2)NC(=O)OCc2ccccc2)CCc2[nH]c3c(Cl)cc(Cl)cc3c2C1)C(N)=O` (stereo not drawn) [Example 303 from WO 03/051837 A2, Benzyl [1-[3-(1-carbamoyl-2-methylbutylcarbamoyl)-6,8-dichloro-2,3,4,9-tetrahydro-1H-carbazol-3-ylcarbamoyl]-3-(4-hydroxyphenyl)propyl]carbamate, reference compound], the concentration in solution in data set [2] (solubility) was 0.35 µg/mL (≈ 0.484 µM).

For “benzyl[(S)-1-[(R)-3-((S)-carbamoyl-2-methylbutylcarbamoyl)-6,8-dichloro-2,3,4,9-tetrahydro-1H-carbazol-3-ylcarbamoyl]-3-(4-phosphonooxyphenyl)propyl]-carbamate [Compound 11]”, the EC50 at rat LHRH receptor stood at 17.2 nM. For the same compound, the “Saturation solubility in water” value in data set [2] is 39.9 µg/mL. For the same compound, in data set [3], the “Metabolic stability (human) [1 h, % recovery]” value is given as 77%.

The record behind these values is patent publication US8067456B2 (AEterna Zentaris GmbH, priority 2004, dated 2011).
